According to ChEMBL document CHEMBL1201862, “PubChem BioAssay data set” (2004):
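Values below derive from 48-hour exposures of cells grown in 96-well plates, with endpoints linearly interpolated between the two concentrations bracketing the appropriate inhibition level. GI50: concentration for 50% inhibition of growth.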 The source made the active and inactive calls. Rule as the data show it: active = GI50 up to about 1.1 µM and inactive = higher.

Tests used:
Test in all cases: growth of human tumour cells (NCI), 48 h
A549 = tested on: A549
ACHN = tested on: ACHN
HCT-15 = tested on: HCT-15
K562 = tested on: K562
M14 = tested on: M14
MDA-MB-435 = tested on: MDA-MB-435
MOLT-4 = tested on: MOLT-4
Malme-3M = tested on: Malme-3M
NCI-H226 = tested on: NCI-H226
NCI-H522 = tested on: NCI-H522
OVCAR-3 = tested on: OVCAR-3
OVCAR-5 = tested on: OVCAR-5
OVCAR-8 = tested on: OVCAR-8
SF-268 = tested on: SF-268
SN12C = tested on: SN12C
SNB-75 = tested on: SNB-75
SW-620 = tested on: SW-620
TK-10 = tested on: TK-10
U-251 = tested on: U-251
UACC-257 = tested on: UACC-257

| Compound | GI50 (A549) | GI50 (ACHN) | GI50 (HCT-15) [µM] | GI50 (K562) | GI50 (M14) | GI50 (MDA-MB-435) | GI50 (MOLT-4) | GI50 (Malme-3M) | GI50 (NCI-H226) | GI50 (NCI-H522) | GI50 (OVCAR-3) | GI50 (OVCAR-5) | GI50 (OVCAR-8) | GI50 (SF-268) | GI50 (SN12C) | GI50 (SNB-75) | GI50 (SW-620) | GI50 (TK-10) | GI50 (U-251) | GI50 (UACC-257) |
| --- | --- | --- | --- | --- | --- | --- | --- | --- | --- | --- | --- | --- | --- | --- | --- | --- | --- | --- | --- | --- |
| CCOC(=O)/C=C(/C(=O)OCC)n1cc(C)c(=O)[nH]c1=O | 16.4 µM (inactive) | 2.72 µM (inactive) | 2.04 | 1.9 µM (inactive) | 1.95 µM (inactive) | 3.07 µM (inactive) | 2.44 µM (inactive) | 2.29 µM (inactive) | 5.46 µM (inactive) | 0.792 µM (active) | 2.68 µM (inactive) | 5.87 µM (inactive) | 4.62 µM (inactive) | 8.65 µM (inactive) | 5.06 µM (inactive) | 10.3 µM (inactive) | 2.01 µM (inactive) | 2.52 µM (inactive) | 6.62 µM (inactive) | 12.9 µM (inactive) |
| OC(COc1ccccc1)CN1CCCCC1 (stereo not given) | > 100 µM (inactive) | > 100 µM (inactive) | > 100 | > 100 µM (inactive) | > 100 µM (inactive) | > 100 µM (inactive) | > 100 µM (inactive) | > 100 µM (inactive) | > 100 µM (inactive) | > 100 µM (inactive) | > 100 µM (inactive) | > 100 µM (inactive) | > 100 µM (inactive) | > 100 µM (inactive) | > 100 µM (inactive) | > 100 µM (inactive) | > 100 µM (inactive) | > 100 µM (inactive) | > 100 µM (inactive) | > 100 µM (inactive) |
| Cc1cc(O)nc(NN2C(Cl)C(=O)C2c2ccc(O)cc2)n1 (stereo not given) | 13.6 µM (inactive) | 8.07 µM (inactive) | 4.31 | 2.37 µM (inactive) | 11.4 µM (inactive) | 8.47 µM (inactive) | 5.33 µM (inactive) | 14.4 µM (inactive) | 10.5 µM (inactive) | 15 µM (inactive) | 6.28 µM (inactive) | 17.8 µM (inactive) | 12.6 µM (inactive) | 8.45 µM (inactive) | 11.2 µM (inactive) | 1.87 µM (inactive) | 5.21 µM (inactive) | 14.9 µM (inactive) | 5.4 µM (inactive) | 13.1 µM (inactive) |
| COc1cc(CSc2ccc(O)cc2)cc(OC)c1OC | 48.4 µM (inactive) | 31.3 µM (inactive) | 25.5 | 38 µM (inactive) | 36.4 µM (inactive) | 27.6 µM (inactive) | 25.5 µM (inactive) | 27.5 µM (inactive) | 29 µM (inactive) | 29.3 µM (inactive) | 41.6 µM (inactive) | 52.1 µM (inactive) | 33.8 µM (inactive) | 53.3 µM (inactive) | 52.5 µM (inactive) | 23.1 µM (inactive) | > 100 µM (inactive) | 75.2 µM (inactive) | 29.2 µM (inactive) | 39 µM (inactive) |
